From PMC8685350, “Activation of the SARS-CoV-2 NSP14 3′–5′ exoribonuclease by NSP10 and response to antiviral inhibitors” (The Journal of Biological Chemistry, 2021)

Key:
NSP10/14 complex [1] = target: T1, NSP10/14 complex (Severe acute respiratory syndrome coronavirus 2, UniProt P0DTD1); assay: biochemical
T1 construct: gene rep; full-length NSP14 and NSP10 (139 aa), mature chains of replicase polyprotein 1ab; N-terminal His-tags (pDEST527), E. coli Rosetta2; assembled in vitro, copurified on Mono S, near stoichiometric; with Non-structural protein 10

NSP10/14 complex [2] = target: T1, NSP10/14 complex; format: binding
NSP14 = target: T2, NSP14 (Severe acute respiratory syndrome coronavirus 2, UniProt P0DTD1); format: binding
T2 construct: gene rep; full-length NSP14, mature chain of replicase polyprotein 1ab; N-terminal His-tag (pDEST527), E. coli Rosetta2

SMILES: Nc1ncnc2c1ncn2[C@@H]1O[C@H](CSCC[C@H](N)C(=O)O)[C@@H](O)[C@H]1O [S-adenosylhomocysteine]
- EC50 (NSP10/14 complex [1]): 25 ± 9 µM
- Tm at 400 μM SAH (NSP10/14 complex [2]): 48.2 ± 0.2 °C
- Tm at 40 μM SAH (control Tm 43.1 ± 0.2 °C) (NSP14): 48.5 ± 0.17 °C
